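Assay format: 96-well plates, 48-hour exposure. Abbreviation: GI50, concentration required for 50% inhibition of growth.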 Calls of active or inactive are those of the source. Rule as the data show it: active = GI50 up to about 1.1 µM and inactive = higher.
Experiments:
Assay in all cases: NCI anticancer screen, dose series, 48 h
[1] = test system: NCI-H226
[2] = test system: DMS-273
[3] = test system: DLD-1
[4] = test system: RXF 393
[5] = test system: MOLT-4
[6] = test system: OVCAR-4
[7] = test system: RPMI-8226
[8] = test system: SNB-19
[9] = test system: M14
[10] = test system: OVCAR-3
[11] = test system: SK-OV-3
[12] = test system: M19-MEL
[13] = test system: IGROV-1
[14] = test system: SF-539
[15] = test system: UO-31
[16] = test system: HOP-18
[17] = test system: OVCAR-5
[18] = test system: LXFL 529
[19] = test system: SNB-75
[20] = test system: SF-268
[21] = test system: HCC 2998
[22] = test system: SK-MEL-28
[23] = test system: SK-MEL-5
[24] = test system: HOP-62
[25] = test system: RXF 631
[26] = test system: NCI-H460
[27] = test system: HCT-116
[28] = test system: NCI-H522
[29] = test system: OVCAR-8
[30] = test system: UACC-257
[31] = test system: HT-29
[32] = test system: HCT-15
[33] = test system: CCRF-CEM
[34] = test system: ACHN
[35] = test system: HL-60
[36] = test system: UACC-62
[37] = test system: CAKI-1
[38] = test system: SR
[39] = test system: NCI-H23
[40] = test system: DMS-114
[41] = test system: SW-620
[42] = test system: SN12C
[43] = test system: LOX IMVI
[44] = test system: K562
[45] = test system: COLO 205
[46] = test system: SNB-78
[47] = test system: A549
[48] = test system: Malme-3M
[49] = test system: HOP-92
[50] = test system: EKVX
[51] = test system: 786-0
[52] = test system: U-251
[53] = test system: TK-10
[54] = test system: KM-20L2
[55] = test system: SF-295
[56] = test system: KM12
[57] = test system: SK-MEL-2
[58] = test system: A498

COc1cc(Br)c(/C=N\c2cccc3cc(OC)c(OC)cc23)cc1OC
GI50 [1]: 41.7 µM (inactive) | GI50 [2]: 43.4 µM (inactive) | GI50 [3]: 43.4 µM (inactive) | GI50 [4]: 20.2 µM (inactive) | GI50 [5]: 26.8 µM (inactive) | GI50 [6]: 91.8 µM (inactive) | GI50 [7]: 23.9 µM (inactive) | GI50 [8]: > 100 µM (inactive) | GI50 [9]: 30 µM (inactive) | GI50 [10]: 23.5 µM (inactive) | GI50 [11]: > 100 µM (inactive) | GI50 [12]: 41.6 µM (inactive) | GI50 [13]: 61.2 µM (inactive) | GI50 [14]: 22.1 µM (inactive) | GI50 [15]: 27.9 µM (inactive) | GI50 [16]: > 100 µM (inactive) | GI50 [17]: > 100 µM (inactive) | GI50 [18]: 25.9 µM (inactive) | GI50 [19]: 16.8 µM (inactive) | GI50 [20]: 45.4 µM (inactive) | GI50 [21]: > 100 µM (inactive) | GI50 [22]: 88.3 µM (inactive) | GI50 [23]: 36.1 µM (inactive) | GI50 [24]: > 100 µM (inactive) | GI50 [25]: 50.5 µM (inactive) | GI50 [26]: > 100 µM (inactive) | GI50 [27]: 34.3 µM (inactive) | GI50 [28]: > 100 µM (inactive) | GI50 [29]: 34.7 µM (inactive) | GI50 [30]: 85.7 µM (inactive) | GI50 [31]: 31.9 µM (inactive) | GI50 [32]: 31.4 µM | GI50 [33]: 17.8 µM (inactive) | GI50 [34]: 51.5 µM (inactive) | GI50 [35]: 11.3 µM (inactive) | GI50 [36]: 26 µM (inactive) | GI50 [37]: 41.5 µM (inactive) | GI50 [38]: 15.5 µM (inactive) | GI50 [39]: 39.7 µM (inactive) | GI50 [40]: 17.2 µM (inactive) | GI50 [41]: 35.6 µM (inactive) | GI50 [42]: 40.6 µM (inactive) | GI50 [43]: 35.3 µM (inactive) | GI50 [44]: 19.9 µM (inactive) | GI50 [45]: 97.7 µM (inactive) | GI50 [46]: 55.8 µM (inactive) | GI50 [47]: > 100 µM (inactive) | GI50 [48]: 54.1 µM (inactive) | GI50 [49]: 28.2 µM (inactive) | GI50 [50]: 50.2 µM (inactive) | GI50 [51]: 22.6 µM (inactive) | GI50 [52]: 42.5 µM (inactive) | GI50 [53]: 83.2 µM (inactive) | GI50 [54]: 55.6 µM (inactive) | GI50 [55]: 25.9 µM (inactive) | GI50 [56]: 28.8 µM (inactive)

C#CC[C@]12CC(=O)CC[C@H]1CC1(C2)OCCO1
GI50 [1]: > 100 µM (inactive) | GI50 [2]: > 100 µM (inactive) | GI50 [3]: > 100 µM (inactive) | GI50 [4]: > 100 µM (inactive) | GI50 [5]: > 100 µM (inactive) | GI50 [6]: > 100 µM (inactive) | GI50 [7]: > 100 µM (inactive) | GI50 [8]: > 100 µM (inactive) | GI50 [57]: > 100 µM (inactive) | GI50 [9]: > 100 µM (inactive) | GI50 [10]: > 100 µM (inactive) | GI50 [11]: > 100 µM (inactive) | GI50 [12]: > 100 µM (inactive) | GI50 [13]: > 100 µM (inactive) | GI50 [14]: > 100 µM (inactive) | GI50 [15]: > 100 µM (inactive) | GI50 [16]: > 100 µM (inactive) | GI50 [18]: > 100 µM (inactive) | GI50 [19]: > 100 µM (inactive) | GI50 [20]: > 100 µM (inactive) | GI50 [21]: > 100 µM (inactive) | GI50 [22]: > 100 µM (inactive) | GI50 [23]: > 100 µM (inactive) | GI50 [24]: > 100 µM (inactive) | GI50 [25]: > 100 µM (inactive) | GI50 [26]: > 100 µM (inactive) | GI50 [27]: > 100 µM (inactive) | GI50 [28]: > 100 µM (inactive) | GI50 [29]: > 100 µM (inactive) | GI50 [30]: > 100 µM (inactive) | GI50 [32]: > 100 µM | GI50 [33]: > 100 µM (inactive) | GI50 [34]: > 100 µM (inactive) | GI50 [35]: > 100 µM (inactive) | GI50 [36]: > 100 µM (inactive) | GI50 [37]: > 100 µM (inactive) | GI50 [38]: > 100 µM (inactive) | GI50 [40]: > 100 µM (inactive) | GI50 [58]: > 100 µM (inactive) | GI50 [41]: > 100 µM (inactive) | GI50 [42]: > 100 µM (inactive) | GI50 [44]: > 100 µM (inactive) | GI50 [45]: > 100 µM (inactive) | GI50 [46]: > 100 µM (inactive) | GI50 [47]: > 100 µM (inactive) | GI50 [48]: > 100 µM (inactive) | GI50 [51]: > 100 µM (inactive) | GI50 [52]: > 100 µM (inactive) | GI50 [53]: > 100 µM (inactive) | GI50 [54]: > 100 µM (inactive) | GI50 [56]: > 100 µM (inactive)

From ChEMBL document CHEMBL1201862, “PubChem BioAssay data set” (2004)
